# What was measured:
# [1] = Irradiation of caged nucleosides, conversion estimated by HPLC; format: physicochemical; details: 450 nm; H2O:ACN (1:1)
# Procedure: Conversions from caged compounds to uncaged compounds were estimated by integrating the peaks of a UV-spectrum that resulted from the HPLC analysis (Agilent infinity 1260).
# When irradiating isolated N2-modified compounds, a final volume of 10 μL in double distilled water was irradiated using a LED (λmax=365 nm/405 nm/420 nm) and then analyzed by RP-HPLC.
# A 500 μM solution of the compound 15, nitropiperonylmethyl fused via a carbamate moiety to guanosine (denoted “NPOM guanosine” or “caged guanosine”), in water/acetone/acetonitrile was irradiated in a 10 μL volume with either 405 nm for 20 s, 40 s or 60 s or with 365 nm for 5 s, 10 s or 20 s, respectively, using a LED power (input 3W and output 147 mW/cm^2). HPLC analysis was performed as described above.
# Samples of the adenosine fused via a carbamate moiety to 7-(diethylamino)-4-(hydroxymethyl)-coumarin (DEACM) were irradiated with 450 nm. […] The peak at 21.1 min corresponds to the obtained compound and the peaks at 11.1 and 21.9 min correspond to the photo-cleavage products adenosine and DEACM-OH, respectively.
# Reticulocyte Lysate = assay: In vitro translation of capped FLuc-mRNA and luminescence measurement; format: biochemical
# Procedure: In vitro translation was performed using a eukaryotic cell free protein expression kit from Reticulocyte Lysate (Invitrogen). Experiments were performed in 12.5 μL total volume containing 20 ng of the corresponding FLuc-mRNAs, 50 μM L-methionine and 150 mM potassium acetate. Samples were mixed with 8.5 μL of the reticulocyte lysate and incubated for 90 min at 30° C. Afterwards, 2 μL of the respective translation mix were used in subsequent luminescence measurement. The translation efficiency of the reporter mRNAs was assessed in a luciferase assay using Beetle-juice Luciferase Assay Firefly (pjk). Luciferase activity was determined by adding 50 μL freshly prepared substrate solution to the translation mixture. Luminescence was monitored using a Tecan Infinite® m1000pro microplate reader with an acquisition time of 3 s (duration of signal acquisition).
# The photocleavable 5′-cap analog of formula (7) was used for in vitro transcription to make FLuc mRNA as described above. This was used for in vitro translation and Luminescence measurement as described above. The commercial non-modified cap analog denoted “m^7GpppG” (Jena Bioscience) was used as positive control. Samples were irradiated for 30 seconds. The ApppG capped mRNA, which is not recognized by the translation initiation factor served as negative control, which is substracted from the other samples as it represents background activity. The experiment was performed in quadruplicates. The FLuc-mRNA capped with the photocleavable 5′-cap analog of formula (7) is denoted “ONB”.
# The in vitro translation assay and luminescence measurement was performed as described above using the photocleavable 5′-cap analog of formula (12). The capped mRNA was denoted “DMNB-m^7GpCH2ppG capped FLuc-mRNA”. Samples were irradiated for 30 seconds (365 nm) or 60 seconds (405 nm). The commercial non-modified cap analog denoted “m^7GpppG” (Jena Bioscience) was used as positive control and all other samples were normalized to it. The ApppG capped mRNA, which is not recognized by the translation initiation factor served as negative control, which is substracted from the other samples as it represents background activity. The experiment was performed in triplicates, except *DMNB-m7GpCH2ppG (365 nm) which was a single determination.
# The in vitro translation assay in reticulocyte lysate and luminescence measurement was performed as described above using m^7GpppG capped FLuc-mRNA caged with the photocleavable 5′-cap analog of formulas (22) and (25) (denoted “DMNB m^7GpppG” and “NPOM m^7GpppG”). Samples were irradiated for 30 seconds at 365 nm. The ApppG capped mRNA, which is not recognized by the translation initiation factor served as negative control, which was substracted from the other samples as it represents background activity. The values were normalized to the non-irradiated sample with m^7GpppG capped mRNA (100%). The experiment was performed in triplicates.
# The in vitro translation assay in reticulocyte lysate and luminescence measurement was performed as described above using m^7GpppG capped FLuc-mRNA with modified nucleotides m^5C and N^1methyl-pseudouridine caged with the photocleavable 5′-cap analog of formulas (22) and (25) (denoted “DMNB m^7GpppG mod” and “NPOM m^7GpppG mod”). Samples were irradiated for 30 seconds at 365 nm. The ApppG capped mRNA, which is not recognized by the translation initiation factor served as negative control, which was substracted from the other samples as it represents background activity. The values were normalized to the non-irradiated sample with m^7GpppG capped mRNA (100%). The experiment was performed in triplicates.
# T7 RNA polymerase = molecular target: T1, T7 RNA polymerase (Escherichia phage T7, UniProt P00573); assay: In vitro transcription of GLuc mRNA with cap analogs, gel analysis; format: biochemical
# T1 construct: purchased Thermo Scientific
# Procedure: First, the DNA sequence coding for eGFP, Firefly luciferase (FLuc) or Gaussia luciferase (GLuc) mRNAs were amplified from pmRNA-vectors containing the respective sequence. After purification (NucleoSpin Gel and PCR Clean-up, Macherey-Nagel), the resulting linear dsDNA was used as template (200 ng) for in vitro T7 transcription performed in transcription buffer (40 mM Tris/HCl, 25 mM NaCl, 8 mM MgCl2, 2 mM spermidine(HCl)3) by adding either a A/C/UTP (0.5 mM) mix or a mix with modified nucleotides (A/m^5C/N^1-methylpseudo-UTP) (0.5 mM), GTP (0.25 mM), GpppG, m7GpppG, ApppG, DMNB or NPOM cap analog (1 mM), T7 RNA polymerase (50 U) (Thermo Scientific) and pyrophosphatase (0.1 U) (Thermo Scientific) for 4 h at 37° C. Remaining DNA template was digested in presence of 2 U DNase I for 1 h at 37° C. and then mRNAs were purified using the RNA Clean & Concentrator™-5 Kit (Zymo Research). To digest non-capped RNAs, 10 U of the RNA 5′-polyphosphatase (Epicentre) as well as the supplied reaction buffer were added to purified mRNAs. After an incubation period of 30 min at 37° C., 0.5 U of the 5′-3′ exoribonuclease XRN1 (NEB) and MgCl2 (5 mM) were added. The reaction mixture was incubated for 60 min at 37° C. Subsequently, capped mRNAs were purified using the RNA Clean & Concentrator™-5 Kit (Zymo Research).
# The photocleavable 5′-cap analogs of formulas (12) and (18) were used for in vitro transcription of GLuc mRNA as described above and analysed via agarose gel electrophoresis.
# “M” denotes Riboruler low range RNA ladder.
# HeLa cells = assay: Translation and irradiation in HeLa cells of capped GLuc-mRNA (luminescence); format: cell-based
# Procedure: HeLa cells were transferred to a 96 well plate 20 h prior transfection. 30.000 cells/well were cultivated in growth Media (MEM, 10% FCS, 1% glutamine, 1% Penicillin, 1% Streptomycine, […] non-essential aminoacids). For transfection the growth media was exchanged for MEM-media with 0.6 μL Metafectene® Pro (0.3 μL) and 100 ng mRNA was added per well. 6 h after transfection of the cells the media was exchange by MEM-media, followed by irradiation and another MEM-media exchange. After 24 h post transfection the supernatant in the wells was used for further luminescence measurements. Values of the ApppG capped mRNA represent cap independent translation and were therefore subtracted from the other values.
# In cell translation and irradiation in cell culture of mammalian HeLa cells was performed as described above. GLuc mRNA capped with the photocleavable 5′-cap analog of formula (12) (“DMNB”) was used and the commercial non-modified cap analog denoted “m^7GpppG” (Jena Bioscience) was used as a control. HeLa cells were either transfected with the DMNB-m^7GpCH2ppG capped mRNA (irradiated and non-irradiated before transfection) or with the natural capped mRNA (irradiated and non-irradiated before transfection). Irradiation of the mRNA containing the natural cap was performed (5 V, 600 mA) with 365 nm for 30 seconds to evaluate the resulting influence on translational efficiency. DMNB-m^7GpCH2ppG capped mRNA was irradiated in the same way or with 405 nm for 60 seconds. The ApppG capped mRNA, which is not recognized by the translation initiation factor served as negative control, which is substracted from the other samples as it represents background activity. The values were normalized to the non-irradiated m^7GpppG capped sample (100%). The experiment was performed in triplicates.
# The luminescence measurement of cell culture media after translation in cells transfected with modified and non-modified GLuc mRNA was repeated using irradiation with 365 nm/405 nm for different periods of time. HeLa cells were either transfected with the GLuc mRNA capped with the photocleavable 5′-cap analog of formula (12) denoted “DMNB-m^7GpCH2ppG capped mRNA” or with the natural m^7GpppG capped mRNA. Cells transfected with the natural capped mRNA were irradiated (5 V, 600 mA) with 365 nm/405 nm for 30 s or 60 s to evaluate the resulting influence on translational efficiency. Cells transfected with DMNB-m^7GpCH2ppG capped mRNA were irradiated in the same way. The ApppG capped mRNA, which is not recognized by the translation initiation factor served as negative control, which is substracted from the other samples as it represents background activity. The values were normalized to the non-irradiated cells with m^7GpppG capped mRNA (100%). The experiment was performed in triplicates.
# Luminescence measurement of cell culture media after translation of transfected modified and non-modified GLuc mRNA in cells. HeLa cells were either transfected with the NPOM-m^7GpCH2ppG capped mRNA or with the natural m^7GpppG capped mRNA. Cells transfected with the natural capped mRNA were irradiated (5 V, 600 mA) with 365 nm/405 nm for different periods of time to evaluate the resulting influence on translational efficiency. Cells transfected with NPOM-m^7GpCH2ppG capped mRNA were irradiated in the same way. The ApppG capped mRNA, which is not recognized by the translation initiation factor served as negative control, which is substracted from the other samples as it represents background activity. […]
# T1 sequence (P00573 whole entry): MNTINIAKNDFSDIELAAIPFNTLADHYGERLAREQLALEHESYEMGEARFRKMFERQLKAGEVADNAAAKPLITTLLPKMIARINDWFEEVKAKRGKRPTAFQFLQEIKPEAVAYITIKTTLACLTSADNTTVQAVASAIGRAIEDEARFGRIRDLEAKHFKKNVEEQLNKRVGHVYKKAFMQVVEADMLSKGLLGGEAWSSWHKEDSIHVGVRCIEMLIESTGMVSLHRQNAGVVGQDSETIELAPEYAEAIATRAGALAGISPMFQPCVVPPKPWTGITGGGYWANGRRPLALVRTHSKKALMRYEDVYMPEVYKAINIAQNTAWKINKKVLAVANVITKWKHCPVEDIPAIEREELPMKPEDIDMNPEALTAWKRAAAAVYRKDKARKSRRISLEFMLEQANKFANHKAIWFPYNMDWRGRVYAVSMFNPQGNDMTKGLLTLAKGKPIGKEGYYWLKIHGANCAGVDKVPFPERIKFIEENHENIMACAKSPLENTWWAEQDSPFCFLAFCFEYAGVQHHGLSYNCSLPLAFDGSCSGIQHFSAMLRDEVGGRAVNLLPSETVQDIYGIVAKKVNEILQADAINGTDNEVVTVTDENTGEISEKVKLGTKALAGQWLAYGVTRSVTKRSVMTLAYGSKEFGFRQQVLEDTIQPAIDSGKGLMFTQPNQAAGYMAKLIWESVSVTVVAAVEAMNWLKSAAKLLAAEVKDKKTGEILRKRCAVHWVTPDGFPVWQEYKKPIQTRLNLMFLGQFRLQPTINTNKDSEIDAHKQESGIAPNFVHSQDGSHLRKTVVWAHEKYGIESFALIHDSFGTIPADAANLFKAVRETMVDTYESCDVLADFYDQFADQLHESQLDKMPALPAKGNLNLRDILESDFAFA
structure (smiles),measurement,setting,value
CCN(CC)c1ccc2c(COC(=O)Nc3ncnc4c3ncn4[C@@H]3O[C@H](CO)[C@H](O)C3O)cc(=O)oc2c1 (stereo partly drawn),photo-cleavage upon irradiation (HPLC),[1],photocleavable
"CC(OC(=O)Nc1nc2c(c(=O)[nH]1)[n+](C)cn2[C@@H]1O[C@H](COP(=O)(O)OP(=O)(O)OP(=O)(O)OC[C@H]2O[C@@H](n3cnc4c(=O)[nH]c(N)nc43)C(O)C2O)C(O)C1O)c1cc2c(cc1[N+](=O)[O-])OCO2 (stereo partly drawn) [compound 25, P1-(N^2-(1-(6-nitrobenzo[d][1,3]dioxol-5-yl)ethyl)oxycarbonyl-7-methylguanosin-5′-yl)-P3-guanosin-5′-yl triphosphate]",in vitro translation (luminescence) after irradiation,"Reticulocyte Lysate; capped FLuc-mRNA with modified nucleotides m^5C and N^1methyl-pseudouridine, 30 seconds at 365 nm",marked increase of translation
same,in vitro translation (luminescence) after irradiation,"Reticulocyte Lysate; capped FLuc-mRNA, regular nucleotides, 30 seconds at 365 nm",marked increase of translation
"Cn1c[n+]([C@@H]2O[C@H](COP(=O)(O)OP(=O)([O-])OP(=O)(O)OC[C@H]3O[C@@H](n4cnc5c(=O)[nH]c(N)nc54)[C@H](O)[C@@H]3O)[C@@H](O)[C@H]2O)c2nc(N)[nH]c(=O)c21 [m^7GpppG, reference compound]",incorporation of cap analog into RNA,T7 RNA polymerase,incorporated into the RNA
"C[n+]1cn([C@@H]2O[C@H](COP(=O)(O)CP(=O)(O)OP(=O)(O)OC[C@H]3O[C@@H](n4cnc5c(=O)[nH]c(N)nc54)C(O)C3O)C(O)C2O)c2nc(NC(=O)OCc3ccccc3[N+](=O)[O-])[nH]c(=O)c21 (stereo partly drawn) [compound 7, P1-(N^2-(2-Nitrobenzyl)oxycarbonyl-7-methylguanosin-5′-yl)-P3-guanosin-5′-yl 1,2-methylenetriphosphate]",translation efficiency (luminescence of cell supernatant),"HeLa cells; differently capped GLuc mRNAs, normalized to m^7GpppG, single determination",impacts the translation efficiency in an inhibiting way
same,in vitro translation (luminescence) after irradiation,"Reticulocyte Lysate; capped FLuc-mRNA, irradiated for 30 seconds",partially restored
same,"in vitro translation (luminescence), non-irradiated","Reticulocyte Lysate; capped FLuc-mRNA, non-irradiated, normalized to m^7GpppG capped mRNA",successfully inhibited to a high degree
"CC(OC(=O)Nc1nc2c(c(=O)[nH]1)[n+](C)cn2[C@@H]1O[C@H](COP(=O)(O)CP(=O)(O)OP(=O)(O)OC[C@H]2O[C@@H](n3cnc4c(=O)[nH]c(N)nc43)C(O)C2O)C(O)C1O)c1cc2c(cc1[N+](=O)[O-])OCO2 (stereo partly drawn) [compound 18, P1-(N^2-(1-(6-nitrobenzo[d][1,3]dioxol-5-yl)ethyl)oxycarbonyl-7-methylguanosin-5′-yl)-P3-guanosin-5′-yl 1,2-methylenetriphosphate]",translation in cells (luminescence) after irradiation of the cells,"HeLa cells; GLuc mRNA, transfected cells irradiated 15 s, 25 s or 30 s, increase at 365 nm",significant increase of translation
same,incorporation of cap analog into RNA,T7 RNA polymerase,incorporated into the RNA

# From US20250276994A1, “CAP ANALOG FOR THE 5'-END OF EUKARYOTIC MESSENGER RNAS” (WESTFÄLISCHE WILHELMS-UNIVERSITÄT, priority 2021, published 2025)
